From US20170121344A1 (Siga Technologies, Inc., priority 2009, published 2017) come the findings set out here.

The first test deals with Dengue-2 (Strain New Guinea C). Description: Viral yield assay against Dengue-2 in Vero cells. The format is cell-based, Dengue virus. Particulars: Dengue virus, DENV2, Vero, 48 h, read-out: Activity (EC50 in μM) DENV-2. An outline of the steps: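 Infect Vero cells with virus (MOI 0.1), add compound or DMSO, incubate at 37° C, collect progeny at 48 hours post infection, then titrate on Vero cells to obtain EC50.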
For the compound `Cc1c(C(=O)Nc2nccs2)sc2nc(-c3cccs3)cc(C(F)(F)F)c12` [Compound 386, 3-methyl-N-thiazol-2-yl-6-(2-thienyl)-4-(trifluoromethyl)thieno[2,3-b]pyridine-2-carboxamide], the concentration for a half-maximal effect (EC50) was below 5 µM.

The test is the same for the next values; noted with them: Dengue virus, DENV2; viral yield assay, Vero cells, MOI 0.1, 48 hours post infection; read-out: Activity (EC50 in μM) DENV-2.
Regarding `Nc1c(C(=O)N(CC(=O)O)c2cccc(C(F)(F)F)c2)sc2nc(-c3cccs3)ccc12` [Compound 326], the EC50 is below 5 µM.

For `Nc1c(C(=O)Nc2ccc(C(=O)O)cc2)sc2nc(-c3ccc(Cl)cc3)ccc12` [Compound 334, 4-[[3-amino-6-(4-chlorophenyl)thieno [2,3-b]pyridine-2-carbonyl]amino] benzoic acid], the EC50 is below 5 µM.

On to `Nc1c(C(=O)Nc2ccc(S(=O)(=O)O)cc2)sc2nc(-c3ccc(Cl)cc3)ccc12` [Compound 346, 4-[[3-amino-6-(4-chlorophenyl)thieno[2,3-b]pyridine-2-carbonyl]amino]benzenesulfonic acid], for which the EC50 is below 5 µM.

Turning to `Nc1c(C(=O)Nc2cc(Cl)ccc2Cl)sc2nc(-c3ccc(Cl)cc3)ccc12` [Compound 347, 3-amino-6-(4-chlorophenyl)-N-(2,5-dichloro-phenyl)thieno [2,3-b]pyridine-2-carboxamide], the EC50 was below 5 µM.

In the case of `Cc1ccc(NC(=O)c2sc3nc(-c4ccc(Cl)cc4)ccc3c2N)cc1C` [Compound 348, 3-amino-6-(4-chlorophenyl)-N-(3,4-dimethyl-phenyl)thieno [2,3-b]pyridine-2-carboxamide], the EC50 is below 5 µM.

Turning to `Nc1c(C(=O)Nc2ccc(C(=O)C(F)(F)F)cc2)sc2nc(-c3ccc(Cl)cc3)ccc12` [Compound 351, 3-amino-6-(4-chlorophenyl)-N-[4-(2,2,2-tri-fluoroacetyl)phenyl]thieno [2,3-b]pyridine-2-carboxamide], the EC50 was below 5 µM.

Regarding `COc1cccc(-c2ccc3c(N)c(C(=O)N(CCC(=O)O)c4ccc(OC(F)(F)F)cc4)sc3n2)c1` [Compound 354, 3-[N-[3-amino-6-(3-methoxy-phenyl)thieno[2,3-b]pyridine-2-carbonyl]-4-(tri-fluoro-methoxy)anili-no]propanoic acid], the EC50 lay within 5 to 25 µM.

On to `Nc1c(C(=O)N(CCC(=O)O)c2ccc(Cl)cc2)sc2nc(-c3ccc(Cl)cc3)ccc12` [Compound 355, 3-(N-[3-amino-6-(4-chloro-phenyl)thieno [2,3-b]pyridine-2-carbonyl]-4-chloro-anilino) propanoic acid], for which the EC50 was below 5 µM.

As for `Nc1c(C(=O)Nc2ccc(O)cc2)sc2nc(-c3ccc(Cl)cc3)ccc12` [Compound 356, 3-amino-6-(4-chlorophenyl)-N-(4-hydroxy-phenyl) thieno [2,3-b]pyridine-2-carboxamide], the EC50 lay within 5 to 25 µM.

For `Nc1c(C(=O)Nc2ccncc2)sc2nc(-c3cccs3)ccc12` [Compound 357, 3-amino-N-(4-pyridyl)-6-(2-thienyl)thieno [2,3-b]pyridine-2-carboxamide], the EC50 was below 5 µM.

Take `Nc1c(C(=O)Nc2nccs2)sc2nc3c(cc12)CCCCC3` [Compound 366, 3-amino-N-(thiazol-2-yl)-6,7,8,9-tetrahydro-5H-cyclohepta [b]thieno[3,2-e]pyridine-2-carboxamide]: the EC50 is below 5 µM.

For the compound `Cc1ccc2c(N)c(C(=O)Nc3cccc(C(F)(F)F)c3)sc2n1` [Compound 367, 3-amino-6-methyl-N-(3-(trifluoromethyl)phenyl)thieno[2,3-b] pyridine-2-carboxamide], the EC50 is below 5 µM.

Consider `Nc1c(C(=O)Nc2cccc(C(F)(F)F)c2)sc2nc3c(cc12)CCCCCC3` [Compound 370, 3-amino-N-(3-(trifluoromethyl)phenyl)-5,6,7,8,9,10-hexahydrocycloocta[b] thieno[3,2-e]pyridine-2-carboxamide], for which the EC50 is below 5 µM.

Consider `Nc1c(C(=O)Nc2ccccc2OC(F)(F)F)sc2nc3c(cc12)CCCCC3` [Compound 371, 3-amino-N-(2-(trifluoromethoxy)phenyl)-6,7,8,9-tetrahydro-5H-cyclohepta[b]thieno [3,2-e]pyridine-2-carboxamide], for which the EC50 was below 5 µM.

For the compound `Nc1c(C(=O)Nc2ccccc2C(F)(F)F)sc2nc3c(cc12)CCCCC3` [Compound 372, 3-amino-N-(2-(trifluoromethyl)phenyl)-6,7,8,9-tetrahydro-5H-cyclohepta[b]thieno [3,2-e]pyridine-2-carboxamide], the EC50 is below 5 µM.

With `Nc1c(C(=O)Nc2cccc3ccccc23)sc2nc3c(cc12)CCCCC3` [Compound 374, 3-amino-N-(naphthalen-1-yl)-6,7,8,9-tetrahydro-5H-cyclohepta[b]thieno[3,2-e] pyridine-2-carboxamide], the EC50 was below 5 µM.

Take `N#Cc1c(N)nc2sc(C(=O)Nc3ccccc3)c(N)c2c1-c1ccco1` [Compound 375, 3,6-diamino-5-cyano-4-(2-furyl)-N-phenyl-thieno[2,3-b]pyridine-2-carboxamide]: the EC50 was 5 to 25 µM.

`O=C(Nc1ccc(Cl)cc1)c1sc2ncccc2c1OCc1ccc(Cl)c(Cl)c1` [Compound 376, N-(4-chlorophenyl)-3-[(3,4-dichlorophenyl)methoxy]thieno[2,3-b] pyridine-2-carboxamide]: the EC50 is 5 to 25 µM.

For `O=C(Nc1cccc(C(F)(F)F)c1)c1sc2ncccc2c1OCc1ccc(Cl)c(Cl)c1` [Compound 377, 3-[(3,4-dichlorophenyl)methoxy]-N-[3-(trifluoromethyl)phenyl]thieno[2,3-b] pyridine-2-carboxamide], the EC50 was below 5 µM.

Consider `O=C(Nc1ccc(OC(F)(F)F)cc1)c1sc2ncccc2c1OCc1ccc(Cl)c(Cl)c1` [Compound 378, 3-[(3,4-dichlorophenyl)methoxy]-N-[4-(trifluoromethoxy)phenyl]thieno[2,3-b] pyridine-2-carboxamide], for which the EC50 was below 5 µM.

For `O=C(Nc1ccccc1)c1sc2ncccc2c1OCc1ccc(Cl)c(Cl)c1` [Compound 379, 3-[(3,4-dichlorophenyl)methoxy]-N-phenyl-thieno[2,3-b]pyridine-2-carboxamide], the EC50 is below 5 µM.

With `O=C(Nc1cccc(Cl)c1)c1sc2ncccc2c1OCc1ccc(Cl)c(Cl)c1` [Compound 380, N-(3-chlorophenyl)-3-[(3,4-dichlorophenyl)methoxy]thieno[2,3-b] pyridine-2-carboxamide], the EC50 is below 5 µM.

As to `O=C(Nc1cccc(Cl)c1)c1sc2ncccc2c1O` [Compound 381, N-(3-chlorophenyl)-3-hydroxy-thieno[2,3-b]pyridine-2-carboxamide], the 50% effective concentration (EC50) was in the range of 5 to 25 µM.

On to `O=C(Nc1ccccc1Cl)c1sc2ncccc2c1O` [Compound 382, N-(2-chlorophenyl)-3-hydroxy-thieno[2,3-b]pyridine-2-carboxamide], for which the EC50 is 5 to 25 µM.

For `N#Cc1c(N)nc2sc(C(=O)Nc3nc(-c4ccccc4)cs3)c(N)c2c1-c1ccco1` [Compound 383, 3,6-diamino-5-cyano-4-(2-furyl)-N-(4-phenylthiazol-2-yl)thieno[2,3-b]pyridine-2-carboxamide], the EC50 was below 5 µM.

Turning to `O=C(Nc1nccs1)c1sc2nc(N3CCOCC3)cc(-c3ccccc3)c2c1O` [Compound 384, 3-hydroxy-6-morpholino-4-phenyl-N-thiazol-2-yl-thieno[2,3-b]pyridine-2-carboxamide], the EC50 lay in the range of 5 to 25 µM.

`COc1ccccc1NC(=O)c1sc2nc(N3CCOCC3)cc(-c3ccccc3)c2c1O` [Compound 385, 3-hydroxy-N-(2-methoxyphenyl)-6-morpholino-4-phenyl-thieno[2,3-b] pyridine-2-carboxamide]: the EC50 is 5 to 25 µM.

On to `CC1=NN(C(=O)c2sc3nc(-c4cccs4)cc(C(F)(F)F)c3c2C)C(O)(C(F)(F)F)C1` (stereo not shown) [Compound 387, [5-hydroxy-3-methyl-5-(trifluoromethyl)-4H-pyrazol-1-yl]-[3-methyl-6-(2-thienyl)-4-(trifluoromethyl)thieno[2,3-b]pyridin-2-yl]methanone], for which the EC50 lay within 5 to 25 µM.

On to `Cc1c(C(=O)NC(C)(C)C)sc2nc(-c3cccs3)cc(C(F)(F)F)c12` [Compound 388, N-tert-butyl-3-methyl-6-(2-thienyl)-4-(trifluoromethyl)thieno[2,3-b]pyridine-2-carboxamide], for which the half-maximal effective concentration (EC50) was below 5 µM.

For the compound `Cc1cc(C)c2c(C)c(C(=O)NCc3ccco3)sc2n1` [Compound 389, N-(2-furylmethyl)-3,4,6-trimethyl-thieno [2,3-b]pyridine-2-carboxamide], the 50% effective concentration (EC50) is 5 to 25 µM.

As for `CC(=O)c1cnc2sc(C(=O)N(CCc3ccccc3)Cc3cccs3)c(C)c2c1` [Compound 390, 5-acetyl-3-methyl-N-phenethyl-N-(2-thienylmethyl)thieno[2,3-b]pyridine-2-carboxamide], the EC50 was below 5 µM.

On to `CC(=O)c1cnc2sc(C(=O)Nc3cccc(F)c3)c(C)c2c1` [Compound 391, 5-acetyl-N-(3-fluorophenyl)-3-methyl-thieno[2,3-b]pyridine-2-carboxamide], for which the EC50 is below 5 µM.

Turning to `Cc1cc(C)c2c(C)c(C(=O)Nc3nc4ccccc4s3)sc2n1` [Compound 392, N-(1,3-benzothiazol-2-yl)-3,4,6-trimethyl-thieno[2,3-b]pyridine-2-carboxamide], the EC50 fell in the range of 5 to 25 µM.

As for `Cc1cc(C)c2c(C)c(C(=O)Nc3ccc(NC(=O)C4CC4)cc3)sc2n1` [Compound 393, N-[4-(cyclopropanecarbonylamino)phenyl]-3,4,6-trimethyl-thieno[2,3-b]pyridine-2-carboxamide], the EC50 was 5 to 25 µM.

Regarding `Cc1cc(C)c2c(C)c(C(=O)NC(C)C3CC3)sc2n1` (stereo not shown) [Compound 394, N-(1-cyclopropylethyl)-3,4,6-trimethyl-thieno[2,3-b]pyridine-2-carboxamide], the EC50 is below 5 µM.

As to `Cc1cc(C)c2c(C)c(C(=O)NCC(C)C)sc2n1` [Compound 395, N-isobutyl-3,4,6-trimethyl-thieno[2,3-b] pyridine-2-carboxamide], the EC50 lay within 5 to 25 µM.

Usually EC50 stands for the concentration at which the effect is half-maximal.
